Laboratory results: patent publication US11951167B2, “Targeted liposomes” (GEORGETOWN UNIVERSITY, priority 2012, dated 2024)

Experiments:
T98G cells = experiment: XTT sensitization of TMZ resistant cells by scL-p53; assay type: cell-based, human; settings: XTT 72 h after TMZ addition
Procedure: (§1) However, as only a subset of brain tumor patients respond to TMZ it was more critical to assess the ability of scL-p53 to sensitize TMZ resistant tumors to this chemotherapeutic agent. Thus, to assess the ability of scL delivered wtp53 to sensitize TMZ resistant brain tumor cells to this first-line chemotherapeutic agent, human brain tumor derived LN-18 and T98G cells were treated with TMZ alone, or the combination of TMZ plus scL-p53 (FIG. 23). As a control, cells were also treated with the combination of TMZ and the scL delivery system carrying the same vector used to construct the pSCMVp53 plasmid, but without the p53 insert (scL-vec). The cells were plated in a 96-well plate and treated 24 hours later with scL-p53 or scL-vec. 24 hours post-transfection, the TMZ was added in increasing concentrations. […] As shown in FIG. 23 with LN-18 cells, after transfection with scL-p53 these TMZ resistant cells are now responding to even very low doses of TMZ. […] With the T98G cells (FIG. 23), although not as responsive as to TMZ as LN-18 after treatment with scL-p53, these highly resistant cells are also sensitized to the killing effects of this drug.

LN-18 cells = experiment: as above; assay type: cell-based, human; settings: XTT 72 h after TMZ addition
Procedure: as §1

intracranial T98G tumors = experiment: Survival of mice with TMZ resistant intracranial GBM tumors; assay type: in vivo, athymic nude mice; settings: TMZ 100 mg/m^2 i.v. daily for 14 days; scL-p53 30 ug DNA twice weekly for 2 weeks
Procedure: Thus an experiment was performed to assess survival of mice bearing intracranial tumors derived from TMZ resistant human GBM cell line T98G. Athymic nude mice were intracranially inoculated with T98G human glioblastoma cell line. Ten days after the inoculation, animals were imaged by MRI and evenly divided into 3 groups. Treatment was started immediately after imaging. The animals were iv treated with 100 mg/m^2 of TMZ once a day for 14 consecutive days, iv administered scL-p53 (30 ug DNA/injection) (prepared as described in U.S. Pat. No. 7,780,882) twice weekly for 2 weeks, or the combination of both treatments. Survival was monitored. The number of mice surviving/group at day 14 is indicated for each group. […] In contrast, 4 of 5 mice that had received the combination therapy were still surviving.

[1] = test system: glioblastoma multiforme / anaplastic astrocytoma; settings: cited from earlier work
U87 cells [2] = experiment: XTT sensitization to TMZ by scL-p53; assay type: cell-based, human; settings: XTT 144 h after TMZ addition
Procedure: (§2) To assess the ability of scL delivered wtp53 to sensitize brain tumor cells to first-line chemotherapeutic agent TMZ, human brain tumor derived U87 and U251 cells were treated with TMZ alone, or the combination of TMZ plus scL-p53 (prepared as described in U.S. Pat. No. 7,780,882). As a control, cells were also treated with the combination of TMZ and the scL delivery system carrying the same vector used to construct the pSCMVp53 plasmid, but without the p53 insert (scL-vec). The cells were plated in a 96-well plate and treated 24 hours later with scL-p53 or scL-vec. 6 hours post-transfection, the TMZ was added in increasing concentrations. […] As these two cell lines are known to be sensitive to TMZ, it was not unexpected that there was some response to TMZ alone.

U251 cells [3] = experiment: XTT sensitization to TMZ by scL-p53; assay type: cell-based, human; settings: XTT 144 h after TMZ addition
Procedure: as §2

U251 cells [4] = experiment: XTT cell viability, liposome TMZ vs free TMZ; assay type: cell-based, human; settings: at 16-46.3 μM TMZ
Procedure: Studies were carried out to compare the efficacy of standard free (unencapsulated) TMZ; and unliganded TMZ-containing liposomes (Lip-TMZ) The Lip-TMZ was prepared as described above in Example 1 using a liposome concentration of 2 mM. The zeta potentials of the Lip-TMZ molecules ranged from 35.6-40.1 mV. The TMZ concentration used was varied from 1 to about 250 uM. The ratios of Liposome to TMZ was 0.5:1, 1:1 or 2:1 (molar ratio).
Human brain tumor derived U251 cells were plated in triplicate at 2×10^3 per well in a 96-well plate. Following overnight incubation, the medium was replaced with serum-free medium, overlaid with 100 μL of indicated concentrations of either Lip-TMZ, or free TMZ, incubated for 5 h, and then supplemented with fetal bovine serum. After incubation for an additional 91 h, cell viability was determined by the XTT assay as described previously (Rait A, Pirollo K F, Rait V, et al. Inhibitory effects of the combination of HER-2 antisense oligonucleotide and chemotherapeutic agents used for the treatment of human breast cancer. Cancer Gene Ther 2001; 8:728-39.). Formazan absorbance, which correlates to cell viability, was measured at 450 nm using a microplate reader (Bio-Rad, Hercules, Calif.).

U87 cells [5] = experiment: XTT cell viability, Lip-TMZ vs free TMZ; assay type: cell-based, human
[6] = test system: intracranial U87MG-luc2 glioblastoma tumor xenografts; experiment: Efficacy in intracranial GBM xenografts (MRI, BLI, body weight, survival)
Procedure: Intra cranial GBM tumors were induced in 5-6 week old female athymic nude mice by stereotaxic inoculation of U87MG-luc2 cells that stably carry the luciferase gene. Seven to ten days post-inoculation, tumors were evaluated by bioluminescence using Xenogen IVIS in vivo imaging system (Caliper Life Sciences) and mice were evenly divided into treatment groups. Treatment was initiated on the day of randomization (day 0). Animals were injected intravenously (i.v.) via the tail vein with 5 mg/kg (per injection per mouse) of TMZ alone or TfRscFv-targeted TMZ cationic liposome complex (scL-TMZ). […] Mice were injected twice per week with each reagent for 5 weeks. Control animals (Vehicle) received Liposome only (no TMZ, no TfRscFv).
Assessment of in vivo efficacy: The in vivo response to treatment was evaluated based upon the changes in tumor growth, body weight change, and overall survival. Tumor growth was monitored by bioluminescence imaging (BLI) using Xenogen IVIS in vivo imaging system before, during, and after the treatments at the indicated date. […] The bioluminescence intensity of the brain tumors, a measure of tumor size/growth, was measured and compared between treatment groups. Half-way through treatment (after mice received 3 weeks of treatment with each reagent), all animals were scanned with magnetic resonance imaging (MRI) to evaluate the brain tumor. […] Tumor volume was calculated from the MRI scan and compared between treatment groups. Body weight change was monitored weekly. Overall survival was recorded and plotted by Kaplan-Meier method.
In a second experiment, different doses/number of injections per week of scL-TMZ, prepared as described herein, were compared. Groups of mice bearing U87MG-luc2 glioblastoma intracranial xenograft tumors were iv tail vein injected for 5 weeks with scL-TMZ at: 2.5 mg/kg one injection per week; 5 mg/kg one injection per week; or 5 mg/kg two injections per week and survival determined.

[7] = 5 mg/kg i.v. twice per week for 5 weeks

## Cn1nnc2c(C(N)=O)ncn2c1=O [TMZ, temozolomide]
T98G cells
  IC50: ~2000 µM
LN-18 cells
  dose of TMZ until which no significant cell death is observed: ~1000 µM
Intracranial T98G tumors
  mice surviving at day 14: a significant number of animals succumbed
[1]; human, in vivo
  AA patients who do not benefit from TMZ: 50%
  GBM patients who do not benefit from TMZ: 60-75%
[1]; subset of GBM patients
  median increase in survival compared to radiation alone: 2.5 months
U87 cells [2]
  sensitization/response to TMZ: some response
U251 cells [3]
  sensitization/response to TMZ: some response
U251 cells [4]
  cell killing effect: virtually no cell killing effect
U87 cells [5]
  cell killing effect: virtually no cell killing effect
[6]; [7]
  long term survival (Kaplan-Meier): extended the lifespan
  time tumor growth was controlled (BLI): ~2.5 weeks
[6]; 5 mg/kg i.v. twice per week, after 3 weeks (6 injections)
  tumor growth by MRI: some tumor growth inhibition
